Experimental data as given in patent publication US20080311126A1, “Antisense Oligonucleotides Directed to Ribonucleotide Reducatase R2 and Uses Thereof in Combination Therapies for the Treatment of Cancer” (Genesense Technologies, Inc, priority 2004, published 2008).

Tests used:
[1] = test system: SK-OV-3 human ovary adenocarcinoma cells; test: SK-OV-3 ovary tumour xenograft in CD-1 nude mice; type: in vivo; conditions: SK-OV-3 (ovary); Mouse CD-1
Protocol: SK-OV-3 human ovary adenocarcinoma cells (1×10^7 cells in 100 μl of PBS) were subcutaneously injected into the right flank of 6-7 weeks old female CD-1 nude mice. After the size of tumour reached an approximate volume of 100 mm^3, 6 days post tumour cell injection, SEQ ID NO:1 was administered by bolus infusion into the tail vein every other day at 10 mg/kg 17 times. Control animals received saline alone for the same period. Antitumour effect of SEQ ID NO: 1 was further compared to that of taxol or cisplatin alone or in combination. Taxol was administered intravenously once a week for first three weeks and intraperitoneally once a week for next two weeks at a dose of 10 mg/kg. Cisplatin was administered intravenously once a week for first three weeks and intraperitoneally once a week for next two weeks at a dose of 4 mg/kg. All treatments were stopped at day 40. Antitumour activities were estimated by the inhibition of tumour volume, which was measured with caliper. Each point represents mean tumour volume calculated from 9 animals per experimental group.

[2] = test system: MDA-CDDP-S4 human Cisplatin-resistant breast adenocarcinoma cells; test: MDA-CDDP-S4 Cisplatin-resistant breast adenocarcinoma, fat pad injection in SCID mice; type: in vivo; conditions: for Tumour weight as % of saline control: MDA-CDDP-S4 (breast), Cisplatin resistance, SCID
Protocol: MDA-CDDP-S4 human in vivo-selected Cisplatin-resistant breast adenocarcinoma cells (4×10^6 cells in 100 μl of PBS) were injected into the fat pad (inside of right leg) of 6-7 weeks old female SCID mice. After the size of tumour reached an approximate volume of 100 mm^3, 7 days post tumour cell injection, SEQ ID NO:1 was administered by bolus infusion into the tail vein every other day at 10 mg/kg 9 times. Control animals received saline alone for the same period. Antitumour effect of SEQ ID NO: 1 was further compared to that of Cisplatin or Taxol alone. Cisplatin was adminstered intravenously once a week for three weeks at a dose of 4 mg/kg. Taxol was administered intravenously once a week for three weeks at a dose of 10 mg/kg. Antitumour activities were estimated by the inhibition of tumour volume, which was measured with caliper. Each point represents mean tumour volume calculated from 10 animals per experimental group. […] As expected, treatment with Cisplatin during the same period was ineffective against Cisplatin-resistant tumour.
MDA-CDDP-S4 human in vivo-selected Cisplatin-resistant breast adenocarcinoma cells (4×10^6 cells in 100 μl of PBS) were injected into the fat pad (inside of right leg) of 6-7 weeks old female CB-17 SCID mice. After the size of tumour reached an approximate volume of 100 mm^3, 9 days post tumour cell injection, SEQ ID NO:1 was administered by bolus infusion into the tail vein every other day at 10 mg/kg. Control animals received saline alone for the same period. Antitumour effect of SEQ ID NO:1 was further compared to that of Taxol alone and in combination. Taxol was administered i.p. once a week at a dose of 10 mg/kg. Antitumour activities were estimated by the inhibition of tumour volume FIG. 22A), which was measured with calipers. Each point represents mean tumour volume calculated from 10 animals per experimental group. Animals were sacrificed and tumour weights taken at the end of the study (FIG. 22C). […] This study was repeated with similar results (FIG. 22B).

[3] = test system: MDA-MB435-To.1 human Taxol-resistant breast adenocarcinoma cells; test: MDA-MB435-To.1 Taxol-resistant breast adenocarcinoma, fat pad injection in SCID mice; type: in vivo; design: Tumour weight as % of saline control: concentration or dose not given beside the values; conditions: for Tumour weight as % of saline control: MDA-MB435-To.1 (breast), Taxol resistance
Protocol: MDA-MB435-To.1 human Taxol-resistant breast adenocarcinoma cells (4×10^6 cells in […] of PBS) were injected into the fat pad (inside of right leg) of 6-7 weeks old female SCID mice. After the size of tumour reached an approximate volume of 100 mm^3, 20 days post tumour cell injection, SEQ ID NO:1 was administered by bolus infusion into the tail vein every other day at 10 mg/kg 15 times. Control animals received saline alone for the same period. Antitumour effect of SEQ ID NO:1 was further compared to that of Cisplatin or Taxol alone. Cisplatin was administered intravenously once a week for four weeks at a dose of 4 mg/kg. Taxol was administered intravenously once a week for four weeks at a dose of 20 mg/kg.
Antitumour activities were estimated by the inhibition of tumour volume, which was measured with caliper. Bach point represents mean tumour volume calculated from 9-10 animals per experimental group. […] As expected, treatment with Taxol during the same period was ineffective against Taxol-resistant tumour.
MDA-MB435-To.1 human Taxol-resistant breast adenocarcinoma cells (4×10^6 cells in 100 μl of PBS) were injected into the fat pad (inside of right leg) of 6-7 weeks old female CB-17 SCID mice. After the size of tumour reached an approximate volume of 100 mm^3, 17 days post tumour cell injection, SEQ ID NO:1 was administered by bolus infusion into the tail vein every other day at 10 mg/kg. Control animals received saline alone for the same period. Antitumour effect of SEQ ID NO:1 was compared to that of Cisplatin alone and in combination. Cisplatin was administered intravenously once a week for four weeks at a dose of 4 mg/kg. Antitumour activities were estimated by the inhibition of tumour volume, which was measured with caliper. Each point represents mean tumour volume calculated from 10 animals per experimental group. At the end of the study the animals were sacrificed and tumours weighed.

[4] = test system: Hela S3 human cervix epitheloid carcinoma cells; test: Hela S3 hydroxyurea resistant cervix carcinoma xenograft in SCID mice; type: in vivo; conditions: Hela S3 (cervix), hydroxyurea resistance; SCID
Protocol: Hela S3 human cervix epitheloid carcinoma cells (5×10^5 cells in 100 μl of PBS) were subcutaneously injected into the right flank of 6-7 weeks old female SCID mice. Hela S3 is a hydroxyurea resistant cell line. After the size of tumour reached an approximate volume of 100 mm^3, 3 days post tumour cell injection, SEQ ID NO:1 was administered by bolus infusion into the tail vein every other day at 10 mg/kg 6 times. Control animals received saline alone for the same period. Antitumour effect of SEQ ID NO:1 was further compared to that of Hydroxyurea or Cisplatin alone or in combination. Hydroxyurea was administered intraperitoneally every day at a dose of 250 mg/kg for 10 days. Cisplatin was administered intravenously once a week for three weeks at a dose of 4 mg/kg. Antitumour activities were estimated by the inhibition of tumour volume, which was measured with caliper. Each point represents mean tumour volume calculated from 10 animals per experimental group. […] As expected, treatment with Hydroxyurea during the same period was ineffective against Hydroxyurea-resistant tumour.

[5] = test system: BxPC-3 human pancreatic carcinoma cells; test: BxPC-3 gemcitabine resistant pancreatic carcinoma xenograft in CD-1 nude mice; type: in vivo
Protocol: BxPC-3 human pancreatic carcinoma cells (3×10^6 cells in 100 μl of PBS) were subcutaneously injected into the right flank of 6-7 weeks old female CD-1 nude mice. BxPC-3 is a gemcitabine resistant call line. After the size of tumour reached an approximate volume of 100 mm^3, 21 days post tumour cell injection, SEQ ID NO:1 was administered by bolus infusion into the tail vein every other day at 10 mg/kg 17 times. Control animals received saline alone for the same period. Antitumour effect of SEQ ID NO:1 was further compared to that of Gemcitabine. Gemcitabine was administered intravenously every three days at a dose of 100 mg/kg. Antitumour activities were estimated by the inhibition of tumour volume, which was measured with caliper. Each point represents mean tumour volume calculated from 10 animals per experimental group. […] As expected, treatment with Gemcitabine during the same period was ineffective against Gemcitabine-resistant tumour (FIGS. 19A & B).

[6] = test system: renal cell carcinoma; conditions: patients with renal cell carcinoma; cited from earlier work
[7] = test system: MDA-MB-231 human breast cancer cells; test: MDA-MB-231 breast tumour xenograft in CD-1 nude mice; type: in vivo; conditions: MDA-MB-231 (breast); Mouse CD-1
Protocol: MDA-MB-231 human breast cancer cells (1×10^7 cells in 100 μl of PBS) were subcutaneously injected into the right flank of 6-7 weeks old female CD-1 nude mice. After the size of tumour reached an approximate volume of 100 mm^3, 5 days post tumour cell injection, SEQ ID NO:1, or the scrambled control oligonucleotide (SEQ ID NO:3) were administered by bolus infusion into the tail vein every other day at 10 mg/kg. Control animals received saline alone for the same period. Antitumour effect of SEQ ID NO:1 was further compared to that of taxol or doxorubicin alone or in combination. Taxol was administered intravenously once a week at a dose of 10 mg/kg for three (FIG. 17A) or four weeks (FIG. 17C). Doxorubicin was administered intravenously once a week at a dose of 5 mg/kg for first three weeks (FIG. 17A) or for two weeks (FIG. 17C). All treatments were stopped at day 33 (FIG. 17A) or at day 26 (FIG. 17C), respectively. A day after the last treatment, tumours were excised from the animals and their weights were measured. […] In FIG. 17C, antitumour activities were estimated by the inhibition of tumour volume, which was measured with calipers. Each point represents mean tumour volume calculated from 10 animals per experimental group.

[8] = test system: Human taxol-resistant promyelocytic leukaemia cells (HL-60); test: HL-60 taxol-resistant promyelocytic leukaemia xenograft in SCID mice; type: in vivo
Protocol: Human taxol-resistant promyelocytic leukaemia cells (HL-60) (7×10^6 cells in 100 μl of PBS) were injected into the right flank of 6-7 weeks old female SCID mice. After the size of tumour reached an approximate volume of 100 mm^3, 10 days post tumour cell injection, SEQ ID NO:1 was administered by bolus infusion into the tail vein every other day at 10 mg/kg. Control animals received saline alone for the same period. The anti-tumour effect of SEQ ID NO:1 was further compared to that of taxol. Taxol was administered i.p. once a week at a dose of 10 mg/kg. Anti-tumour activity was estimated by the inhibition of tumour volume, which was measured with caliper. Each point represents mean tumour volume calculated from 10 animals per experimental group. In addition animals were sacrificed and tumour weights taken at the end of the study.

[9] = study with Taxol and Cisplatin alone

N.N.[Cl][Pt][Cl] [Cisplatin, reference compound]
tumour volume data as percentage of saline control [1]: 67%
antitumour effect (tumour volume) ([2]; Example 13.3, SEQ ID NO:1 10 mg/kg 9 times, Cisplatin 4 mg/kg, Taxol 10 mg/kg i.v. weekly for three weeks): ineffective
Tumour weight as % of saline control [2, 9]: 78%
Tumour weight as % of saline control ([3]; CB-17/SCID): 56%
Tumour weight as % of saline control ([3]; SCID): 69%
Tumour weight as % of saline control [4]: 63%

Nc1ccn([C@@H]2O[C@H](CO)[C@@H](O)C2(F)F)c(=O)n1 [Gemcitabine, reference compound]
Tumour weight as % of saline control ([5]; BxPC-3 (pancreatic), Gemcitabine resistance, CD-1): 83%
antitumour effect (tumour volume) ([5]; SEQ ID NO:1 10 mg/kg 17 times i.v., Gemcitabine 100 mg/kg i.v. every three days): ineffective

CC(=O)O[C@]1(C(C)=O)CC[C@H]2[C@@H]3C[C@H](C)C4=CC(=O)CC[C@]4(C)[C@H]3CC[C@@]21C [MPA, medroxyprogesterone acetate, reference compound]
1-year survival [6]: 31%

CC(=O)O[C@H]1C(=O)[C@@]2(C)[C@H]([C@H](OC(=O)c3ccccc3)[C@]3(O)C[C@H](OC(=O)[C@H](O)[C@@H](NC(=O)c4ccccc4)c4ccccc4)C(C)=C1C3(C)C)[C@]1(OC(C)=O)CO[C@@H]1C[C@@H]2O [Taxol, Paclitaxel, reference compound]
tumour volume data as percentage of saline control [1]: 49%
Tumour weight as % of saline control ([2]; Taxol combination study, first of two value columns): 26%
Tumour weight as % of saline control ([2]; Taxol combination study, second of two value columns): 61%
Tumour weight as % of saline control [2, 9]: 32%
antitumour effect (tumour volume) ([3]; Example 13.5, SEQ ID NO:1 10 mg/kg 15 times, Cisplatin 4 mg/kg, Taxol 20 mg/kg i.v. weekly for four weeks): ineffective
Tumour weight as % of saline control ([3]; SCID): 109%
Tumour weight as % of saline control [7]: 58%
Tumour weight as % of saline control ([8]; HL-60 (leukemia), Taxol resistance, SCID): 119%
anti-tumour effect (tumour volume, tumour weight) ([8]; SEQ ID NO:1 10 mg/kg every other day, Taxol 10 mg/kg i.p. weekly): no effect on tumour growth or weight
